# In patent US20150011566A1, “N-PHENYLPIPERAZINE DERIVATIVES THAT ARE ANTAGONISTS OF A1A, A1D ADRENOCEPTORS AND 5-HT1A RECEPTORS FOR THE TREATMENT OF BENIGN PROSTATE HYPERPLASIA, PHARMACEUTICAL COMPOSITIONS CONTAINING THE SAME” (UNIVERSIDADE FEDERAL DO RIO DE JANEIRO-UFRJ, priority 2012, published 2015):
# Where two headings read alike, the source gives them in different places.
# What was measured:
# [1] = target: T1, α1A adrenoceptors (Oryctolagus cuniculus, UniProt O02824); experiment: Binding of [3H]-prazosin to α1A adrenoceptors (rabbit liver membranes)
# T1 construct: from tissue; host or cells: rabbit liver membranes
# T1 sequence (O02824 1-466): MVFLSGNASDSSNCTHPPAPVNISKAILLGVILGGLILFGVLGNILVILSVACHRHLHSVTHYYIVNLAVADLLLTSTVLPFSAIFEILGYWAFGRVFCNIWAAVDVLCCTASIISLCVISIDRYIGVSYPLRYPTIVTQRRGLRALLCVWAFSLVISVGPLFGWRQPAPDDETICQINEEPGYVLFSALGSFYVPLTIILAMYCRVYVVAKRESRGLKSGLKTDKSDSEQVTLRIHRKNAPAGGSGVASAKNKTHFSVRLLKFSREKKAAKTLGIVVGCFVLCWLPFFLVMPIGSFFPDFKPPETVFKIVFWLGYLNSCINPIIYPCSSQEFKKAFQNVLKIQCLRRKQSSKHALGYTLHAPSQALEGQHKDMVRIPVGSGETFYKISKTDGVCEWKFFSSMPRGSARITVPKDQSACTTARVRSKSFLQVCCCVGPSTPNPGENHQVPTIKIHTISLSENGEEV
# Experimental: Following the protocol described previously in the literature, membrane preparations from rabbit liver homogenates were obtained. Such membrane preparations are enriched in adrenoceptor subtype α1A. The tissue obtained as described above (˜30 g) was naturally thawed, immersed in thawing solution (0.25 M sucrose, 1 mM EGTA and 5 mM Tris (pH 7.4)) freezing. Then, the tissue was transferred to a petri dish on ice containing solution for homogenizing liver (2 mM EDTA, 100 mM NaCl and 50 mM Tris (pH 7.4)) freezing. The liver was then carefully cut by ignoring the most fibrous part.
# Then, the material was transferred into a beaker where with the aid of Ultra-Turrax homogenizer (speed 24,000 RPM), the tissue was homogenized with the same buffer solution at a ratio of 6 parts of the solution to 1 part material. The material was homogenized three times for 20 seconds; in the intervals the solution was allowed to stand for 1 minute on ice. Subsequently, the homogenate was subjected to centrifugation 10,000×g for 10 minutes at 4° C., yielding a supernatant which was subjected to ultracentrifugation 80,000×g for 40 minutes at 4° C. yielding a pellet. This pellet was resuspended in buffer solution without NaCl (1 mM EDTA and 50 mM Tris (pH 7.4)) and further subjected to ultracentrifugation in the same previous conditions. The pellet obtained was resuspended in this step storage solution (0.25 M sucrose, 1 mM EGTA and 5 mM Tris (pH 7.4)) with the aid of a manual type Dounce homogenizer and stored in aliquots at 300 μL liquid nitrogen. In all protocols for membrane preparations the dosage of protein were performed according to the method of LOWRY et al. (J. Biol. Chem. 193 (1):265-275, 1951).
# The standardization of the assay was done as described in the literature. […] Assays were performed in triplicate.
# In both assays, membrane preparations were incubated at 0° C. for 45 minutes. After the incubation period, the reaction was stopped by adding 4 mL of ice-cold wash buffer (50 mM Tris-HCl, pH 7.4) followed by rapid vacuum filtration on glass fiber filter (GMF 3 Filtrak®). The filters were washed four times with 4 ml of the same solution under vacuum to remove all free radioligand. Then the filters were dried and placed in vials containing 5 ml scintillation fluid (4% PPO, 0.1% POPOP w/v in toluene). The radioactivity retained on the filters was then determined in a liquid scintillation counter (Packard Tri-Carb 1600 TR).
# This procedure aims to obtain a saturation curve with less expenditure of radioactive substances and biological materials. Since competition assays allow us to construct inhibition curves of specific binding of radioligand. The higher the concentration of competitor agent employed in this case the LDT's study, the greater the competition for specific receptors, decreasing the formation radioligand-receptor complex. This can be seen by the gradual decrease of radioactivity retained on the filters is detected by the counter liquid scintillation.
# These values were converted to Ki values (competitive dissociation constant at equilibrium or inhibition constant) using the Cheng-Prusoff equation (Eq. 2).
# [2] = target: T2, 5-HT1A receptors (Rattus norvegicus, UniProt P19327); experiment: Binding of [3H]-8-OH-DPAT to 5-HT1A receptors (rat hippocampus membranes)
# T2 construct: Intrinsic Activity at Native 5-HT1A Receptors; from tissue; host or cells: rat hippocampus membranes
# T2 sequence (P19327 1-422): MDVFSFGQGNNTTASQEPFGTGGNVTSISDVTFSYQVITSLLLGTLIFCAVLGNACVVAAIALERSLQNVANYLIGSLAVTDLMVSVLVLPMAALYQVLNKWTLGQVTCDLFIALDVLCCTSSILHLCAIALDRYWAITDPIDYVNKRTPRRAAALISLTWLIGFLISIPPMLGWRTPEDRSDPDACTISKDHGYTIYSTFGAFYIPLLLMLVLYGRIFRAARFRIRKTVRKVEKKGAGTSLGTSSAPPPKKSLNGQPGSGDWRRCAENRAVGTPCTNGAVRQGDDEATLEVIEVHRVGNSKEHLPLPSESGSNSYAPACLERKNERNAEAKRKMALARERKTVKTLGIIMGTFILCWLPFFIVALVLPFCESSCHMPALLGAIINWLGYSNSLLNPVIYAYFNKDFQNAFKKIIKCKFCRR
# Experimental: Membrane preparations of rat hippocampus according to previously described by HALL et al (1985) and PEROUTKA (1986) were performed. The homogenization and centrifugation steps were performed identically to that described above for receptors α2A and 5-HT2A receptors.
# The binding assays for the 5-HT1A receptors were performed as described previously in the literature and previously standardized in the laboratory through saturation experiments. […] (solvent for dilution of LDT's) for the determination of total binding, or 50 μL non-radioative serotonin at 10 μM to determine the non-specific binding (final volume of 500 μL). Assays were performed in triplicate. […] Assays were performed in triplicate.
# After the incubation period, the reaction was stopped by adding 4 ml of ice-cold solution containing 5 mM Tris (pH 7.4), followed by vacuum filtration on glass fiber filter (GMF 3, Filtrak®) previously soaked with solution 0.5% polyethylenoimine. The filters were washed three times with 4 mL of ice-cold solution containing 5 mM Tris (pH 7.4) under vacuum to remove all free radioligand. Then the filters were dried and placed in vials containing 5 ml scintillation fluid (composition: 4% PPO, 0.1% POPOP w/p in toluene). The radioactivity retained on the filters was then determined in a liquid scintillation counter (Packard Tri-Carb 1600 TR). […] For these receptors were also determined the […] and Ki parameters.
# [3] = Table 5, Cheng-Prusoff, read-out: α1A Ki
# [4] = Table 8, Cheng-Prusoff, read-out: Ki
# [5] = Table 9, agonist radioligand [3H] 8-OH-DPAT, read-out: Ki high
# [6] = Ki high (nM), Table 13, agonist radioligand [3H] 8-OH-DPAT
Structure (SMILES),IC50 [1] [M],Ki [1] [M],IC50 [2] [nM],α1A log IC50 (M) ([1]; Table 5),"Ki [1, 3] [M]",log IC50 (M) ([2]; Table 8),"Ki [2, 4] [nM]",other results
CCCCCN1CCN(c2ccccc2OC)CC1 [LDT 65],7.94e-08,6.7e-08,38,–,–,–,–,"Ki ([2]; Ki (nM), Table 8, Cheng-Prusoff): 18 nM; Ki ([2]; Ki high (nM), Table 9, agonist radioligand [3H] 8-OH-DPAT): 18 nM"
COc1ccccc1N1CCN(CCC2CCCCC2)CC1 [LDT 6],–,–,–,–,–,–,–,"Ki ([1]; Table 3, Cheng-Prusoff, read-out: Ki (M) High Affinity site): 2.16e-09 M; IC50 ([1]; read-out: log CI50 ± EPM (M) High Affinity site (converted)): 2.63e-09 M; Ki ([2]; Table 7, Cheng-Prusoff, read-out: KI): 0.242 nM; IC50 ([2]; Table 7, read-out: log CI50 ± EPM (converted)): 0.589 nM"
CCOc1ccccc1N1CCN(CC)CC1 [LDT 69],–,–,–,−7.41 ± 0.25 a M,3.3e-08,−6.86 ± 0.30 M,62,–
CCN1CCN(c2ccccc2OC)CC1 [LDT 62],–,–,–,−6.51 ± 0.2 M,2.61e-07,−6.47 ± 0.10 M,147,–
COc1ccccc1N1CCN(CCc2ccccc2)CC1 [LDT 2],1.91e-08,1.57e-08,3.02,–,–,–,–,"Ki ([2]; KI (M), Table 7, Cheng-Prusoff): 1.24 nM"
CCN1CCN(c2ccccc2)CC1 [LDT 39],–,–,–,−6.36 ± 0.21 M,3.74e-07,−5.93 ± 0.13 M,520,–
CCCCCCN1CCN(c2ccccc2OC)CC1 [LDT 66],–,–,–,−7.29 ± 0.11 a M,4.3e-08,−7.93 ± 0.20a M,5,"Ki [2, 5]: 5 nM"
COc1cccc(CCN2CCN(c3ccccc3OC)CC2)c1 [LDT 3],5.62e-09,4.63e-09,2.75,–,–,–,–,"Ki ([2]; KI (M), Table 7, Cheng-Prusoff): 1.13 nM; Ki [2, 6]: 1.79 nM"
COc1ccc(CCN2CCN(c3ccccc3OC)CC2)cc1 [LDT 4],1.07e-08,8.81e-09,2.4,–,–,–,–,"Ki ([2]; KI (M), Table 7, Cheng-Prusoff): 0.988 nM"
CCOc1ccccc1N1CCN(CCc2ccc(OC)c(OC)c2)CC1 [LDT 245],–,–,9.33,–,–,–,–,"Ki ([2]; KI (M), Table 7, Cheng-Prusoff): 3.8 nM"
CCCCCCCCN1CCN(c2ccccc2OC)CC1 [LDT 68],–,–,–,−7.35 ± 0.2 a M,3.8e-08,−7.70 ± 0.30b M,9,"Ki [2, 5]: 9 nM"
COc1ccc(CCN2CCN(c3ccccc3OC)CC2)cc1OC [LDT 5],4.47e-09,3.67e-09,6.17,–,–,–,–,"Ki ([2]; KI (M), Table 7, Cheng-Prusoff): 2.54 nM; Ki [2, 6]: 3.89 nM"
CCCN1CCN(c2ccccc2OC)CC1 [LDT 63],–,–,–,−6.50 ± 0.08 M,2.7e-07,−6.37 ± 0.03 M,191,–
CCN1CCN(c2ccccc2O)CC1 [LDT 70],–,–,–,−6.45 ± 0.07 M,3.04e-07,−6.15 ± 0.08 M,316,–
CCCCCCCN1CCN(c2ccccc2OC)CC1 [LDT 67],–,–,–,−7.02 ± 0.12 a M,8.1e-08,−7.42 ± 0.19b M,18,"Ki [2, 5]: 18 nM"
CCOc1ccccc1N1CCN(CCc2ccc3c(c2)OCO3)CC1 [LDT 8],4.57e-09,3.76e-09,0.0575,–,–,–,–,"Ki [2, 6]: 0.018 nM; Ki ([2]; Ki, text b157): 0.0237 nM"
CCCCN1CCN(c2ccccc2OC)CC1 [LDT 64],–,–,–,−6.84 ± 0.04 M,1.24e-07,−6.72 ± 0.19 M,84,–
